The results in this text go back to patent US10576151B2, “Ciclopirox for use in modulation of glucose homeostasis” (UNIVERSITY OF SOUTH CAROLINA, priority 2015, dated 2020).

“Also recorded” adds a separate entry of the source.

In one experiment the test system is ROS. Nature of the experiment: Cellular ROS production in islets (DCFDA assay). In kind it is cell-based, mice. Here is the method:
Measurement of Cellular ROS Production. Islets were incubated with KR buffer containing 0.01% (w/v) bovine serum albumin (BSA), 16 mM HEPES, and 2.8 mM glucose for 60 min at 37° C. ROS measurements were measured by using the DCFDA Cellular ROS Detection Assay Kit (Abcam/Mitosciences) in a 96-well dark microplate in accordance with the manufacturer's guidelines. Briefly, 30 islets were seeded into each well. On the day of the experiment, the islets were washed with 1×phosphate buffered saline and stained with 20 μM DCFH-DA in the dark for 30 min at 37° C. After incubation, DCFH-DA was removed, and the islets were washed with 1×buffer solution. Islets were seeded in a 96-well plate followed by high glucose alone or in combination with CPX glucose treatment and iron citrate alone or in combination with CPX treatment. Samples were analyzed using a Varioskan Flash micro-plate reader (Thermo-Scientific) with excitation wavelength at 485 nm and an emission wavelength at 535 nm. Tert-Butyl hydroperoxide (TBHP) was used as positive control.

In experiment [1] the test system is pancreatic islets. Nature of the experiment: Islet survival under increasing glucose (glucotoxicity), CellTiter 96 AQueous One. In kind it is cell-based, mice. The note with it: for protection from glucotoxicity (islet survival): increasing glucose. The protocol:
Islet Isolation and Viability Assessment. Pancreatic islets were manually isolated from female C57BI/6 mice by the collagenase digestion method (Sigma-Aldrich; Li et al. 2009) and placed in a 96-well plate. The islets were incubated at 37° C. with 95% air and 5% CO2. Islets were manually picked after dithizone (DTZ; Sigma Chemical Co) staining. Before experiments were performed, the islet cells were incubated with extracellular Krebs-Ringer (KR) solution (Sigma-Aldrich) and with increasing amounts of glucose for 24 h and 48 h. Islet cell viability was assessed using CellTiter 96 AQueous One Solution Cell Proliferation Assay from Promega (Madison, USA). Islets from wt, p21-deficient, p53-deficient and CHOP-deficient mice were exposed to CPX at 20 μM for 24 h under increasing glucose amounts in the culture media, then they were let to recover for 48 h in normal glucose-containing media and their survival was assessed (FIG. 9). The 48 h recovery in normal media was deemed necessary because CPX, by inducing p21 expression would inflict cell cycle arrest in islets masking the effects of glucotoxicity. […] The p21-stimulatory activity of CPX in the islets is also p53-independent. […] Consistently with its pro-apoptotic role during ER stress CHOP ablation conferred resistance of islets to glucotoxicity (FIG. 10 at B).

Experiment [2] has as its system C57BI/6 mice. Nature of the experiment: Glucose tolerance test (i.p. 2 g glucose/kg). The format is in vivo. The protocol:
(§1) Glucose Level Determination and Intraperitoneal Insulin Tolerance Test. Mice were fasted for 6 h. Glucose levels of mice were measured by an Accu-Chek Active meter (ROCHE) with blood sample obtained from the tail. For glucose tolerance, mice were injected i.p. with 2 g glucose/kg blood glucose was checked at different time points as indicated (at either 0, 30, 60, 90, 120, 160, 220 min.). For insulin resistance test, mice were injected intraperitoneally at a dose of 0.75 units/kg with human insulin (0.75 U/kg body weight; Sigma) at different time points as indicated, as for glucose tolerance after insulin injection and blood glucose was measured as described.

Experiment [3] relates to pancreatic islets. Nature of the experiment: Insulin release from islets following glucose stimulation. In kind it is cell-based, mice. The note with it: insulin in the media (FIG. 11A). The protocol:
In order to understand better how CPX operates in β cells, it was tested to determine if it affected the efficiency by which insulin is produced following glucose stimulation. […] In view of the antidiabetic activity of CPX in vivo, the inhibition of insulin release appears contradictory. Thus, it was hypothesized that reduced insulin secretion may be linked to reduced ER stress and blunted unfolded protein response, which in turn could explain in the long run the increased survival and functionality of the animals that received CPX. To test this hypothesis, islets were exposed to CPX and high glucose and the levels were tested of chaperones BiP, GRP94 and CHOP that reflect the intensity of the UPR. […] In line with these observations and consistently with the insulin levels in the media (FIG. 11 at A) were also the levels of insulin in the β islets (FIG. 11 at B).

Experiment [4] concerns C57BI/6 mice. Nature of the experiment: Intraperitoneal insulin tolerance (insulin sensitivity) test. The format is in vivo. Here is the method: as §1
The subject of a further experiment is p21-deficient mice. Nature of the experiment: Fasting glucose in diet-induced diabetic p21-deficient mice. The settings on record: CPX as in wt controls, delayed response (FIG. 5A). The format is in vivo. The source says: In Vivo Analysis of Anti-Diabetic Effect of CPX. Mice were randomly grouped. A group of C57BI/6 mice 4-5 weeks old, were fed with either a solution of 10% sucrose and a diet containing 40% kcal as a high-fat diet (HFD; Open Source Diets (New Brunswick, N.J., USA) D12451, 40% calories/fat with free access to (10%) sweetened water (sucrose) or a control chow diet containing 10% of kcal as fat (low-fat diet) and drinking water with no added sucrose (control). Mice with a glucose concentration exceeding 180 mg/dL were considered diabetic, after 2 consecutive glucose measurements. The blood glucose levels were measured using an Accu-Check blood glucose monitor (Roche, Indianapolis, Ind., USA) using blood sample collected from the tail vein. Diabetic mice were treated with either treated daily for 20 days by oral gavages with CPX (25 mg/kg) prepared in a solution (4% ethanol, 5.2% Tween 80, and 5.2% PEG 400) or vehicle control. […]
Glucose Level Determination and Intraperitoneal Insulin Tolerance Test. […] Glucose levels of mice were measured by an Accu-Chek Active meter (ROCHE) with blood sample obtained from the tail. […] For insulin resistance test, mice were injected intraperitoneally at a dose of 0.75 units/kg with human insulin (0.75 U/kg body weight; Sigma) at different time points as indicated, as for glucose tolerance after insulin injection and blood glucose was measured as described. […]

Experiment [5] deals with pancreatic islets. Nature of the experiment: Pancreatic islet numbers by histology (H&E). The format is in vivo. The note with it: diabetic mice treated with CPX (FIG. 8). The source says: In Vivo Analysis of Anti-Diabetic Effect of CPX. Mice were randomly grouped. A group of C57BI/6 mice 4-5 weeks old, were fed with either a solution of 10% sucrose and a diet containing 40% kcal as a high-fat diet (HFD; Open Source Diets (New Brunswick, N.J., USA) D12451, 40% calories/fat with free access to (10%) sweetened water (sucrose) or a control chow diet containing 10% of kcal as fat (low-fat diet) and drinking water with no added sucrose (control). Mice with a glucose concentration exceeding 180 mg/dL were considered diabetic, after 2 consecutive glucose measurements. The blood glucose levels were measured using an Accu-Check blood glucose monitor (Roche, Indianapolis, Ind., USA) using blood sample collected from the tail vein. Diabetic mice were treated with either treated daily for 20 days by oral gavages with CPX (25 mg/kg) prepared in a solution (4% ethanol, 5.2% Tween 80, and 5.2% PEG 400) or vehicle control. Pancreata were preserved in 10% buffered formalin for later histological examination. Immunostaining. Pancreatic tissue samples were fixed at 10% buffered formalin, processed a defined paraffin-embedding procedure before embedding in paraffin, sectioning into 4-μm tissue sections, and stained with hematoxylin and eosin by standard methods.

Take `Cc1cc(C2CCCCC2)n(O)c(=O)c1` [CPX, 6-cyclohexyl-1-hydroxy-4-methylpyridin-2(1H)-one]: the ROS production result in the experiment with ROS (ROS triggered by high glucose (FIG. 12B)) and with ROS (ROS triggered by iron citrate (FIG. 12B)) was “potent inhibitor of ROS” throughout. Also, the “protection from glucotoxicity (islet survival)” value in the experiment with pancreatic islets [1] (p21-deficient islets, CPX 20 μM 24 h then 48 h recovery (FIG. 10D)) is given as “not p21-deficient animals”; in the experiment on pancreatic islets [1] (p53-deficient islets, CPX 20 μM 24 h then 48 h recovery (FIG. 10C)) it was “A similar trend was also found for p53”; in the experiment with pancreatic islets [1] (wt islets, CPX 20 μM 24 h then 48 h recovery (FIG. 10A)), “protected wt”. For the same molecule, the islet growth entry in the experiment on pancreatic islets [1] (wt islets, normal glucose, CPX 20 μM 24 h then 48 h recovery (FIG. 10A)) is “significantly inhibited islet growth”. Moreover, the glucose tolerance result in the experiment with C57BI/6 mice [2] (diabetic mice, CPX vs saline (FIG. 6A)) is listed as “restored the response of diabetic mice to acute administration of glucose”; in the experiment on C57BI/6 mice [2] (non-diabetic wt mice on normal diet, CPX vs saline (FIG. 7B)) it was “not affected”. Also, the release of insulin result in the experiment with pancreatic islets [3] is given as “strong inhibition of insulin production; also recorded: suppressed the release of insulin”. The insulin sensitivity entry in the experiment on C57BI/6 mice [4] (diabetic mice, CPX vs saline (FIG. 6B)) was “restored the response of diabetic mice to acute administration of glucose”; in the experiment on C57BI/6 mice [4] (non-diabetic wt mice on normal diet, CPX vs saline (FIG. 7C)) it was “not affected”. The “glucose regulation (fasting glucose)” value with p21-deficient mice is reported as “responded significantly to CPX in terms of glucose regulation”. In addition, the islet numbers entry with pancreatic islets [5] was “increased significantly”.
